# Measured values reported in patent US20230103791A1 (GLAXOSMITHKLINE INTELLECTUAL PROPERTY DEVELOPMENT LIMITED, priority 2019, published 2023).
# Molecular target: T1, human Nav1.8 (Homo sapiens, UniProt Q9Y5Y9)
# T1 construct: expressed in transfected cells; host or cells: HEK293 (HEK293-Nav1.8)
# Assay: Nav1.8 sodium channels assay, QPatch 48 HTX electrophysiology in HEK293-Nav1.8 cells
# Type: cell-based
# Conditions: Table 1; HEK293-Nav1.8, QPatch 48 HTX, half inactivation state voltage protocol (V1/2); single run or average of two or more runs; read-out: Nav1.8 pIC50 (converted)
# Outline: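 HEK293 cells co-expressing human Nav1.8, Navβ1 and TREK1 were voltage-clamped on QPatch 48 HTX. The V1/2 protocol ran at 0.07 Hz: hold −100 mV, 20 ms to 0 mV, 8 s at −46 mV, 20 ms at −100 mV, then 20 ms at 0 mV (P2). P2 current was fitted over 6-8 concentrations for IC50, with vehicle wells used to correct for run-down.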
# T1 sequence (Q9Y5Y9 whole entry): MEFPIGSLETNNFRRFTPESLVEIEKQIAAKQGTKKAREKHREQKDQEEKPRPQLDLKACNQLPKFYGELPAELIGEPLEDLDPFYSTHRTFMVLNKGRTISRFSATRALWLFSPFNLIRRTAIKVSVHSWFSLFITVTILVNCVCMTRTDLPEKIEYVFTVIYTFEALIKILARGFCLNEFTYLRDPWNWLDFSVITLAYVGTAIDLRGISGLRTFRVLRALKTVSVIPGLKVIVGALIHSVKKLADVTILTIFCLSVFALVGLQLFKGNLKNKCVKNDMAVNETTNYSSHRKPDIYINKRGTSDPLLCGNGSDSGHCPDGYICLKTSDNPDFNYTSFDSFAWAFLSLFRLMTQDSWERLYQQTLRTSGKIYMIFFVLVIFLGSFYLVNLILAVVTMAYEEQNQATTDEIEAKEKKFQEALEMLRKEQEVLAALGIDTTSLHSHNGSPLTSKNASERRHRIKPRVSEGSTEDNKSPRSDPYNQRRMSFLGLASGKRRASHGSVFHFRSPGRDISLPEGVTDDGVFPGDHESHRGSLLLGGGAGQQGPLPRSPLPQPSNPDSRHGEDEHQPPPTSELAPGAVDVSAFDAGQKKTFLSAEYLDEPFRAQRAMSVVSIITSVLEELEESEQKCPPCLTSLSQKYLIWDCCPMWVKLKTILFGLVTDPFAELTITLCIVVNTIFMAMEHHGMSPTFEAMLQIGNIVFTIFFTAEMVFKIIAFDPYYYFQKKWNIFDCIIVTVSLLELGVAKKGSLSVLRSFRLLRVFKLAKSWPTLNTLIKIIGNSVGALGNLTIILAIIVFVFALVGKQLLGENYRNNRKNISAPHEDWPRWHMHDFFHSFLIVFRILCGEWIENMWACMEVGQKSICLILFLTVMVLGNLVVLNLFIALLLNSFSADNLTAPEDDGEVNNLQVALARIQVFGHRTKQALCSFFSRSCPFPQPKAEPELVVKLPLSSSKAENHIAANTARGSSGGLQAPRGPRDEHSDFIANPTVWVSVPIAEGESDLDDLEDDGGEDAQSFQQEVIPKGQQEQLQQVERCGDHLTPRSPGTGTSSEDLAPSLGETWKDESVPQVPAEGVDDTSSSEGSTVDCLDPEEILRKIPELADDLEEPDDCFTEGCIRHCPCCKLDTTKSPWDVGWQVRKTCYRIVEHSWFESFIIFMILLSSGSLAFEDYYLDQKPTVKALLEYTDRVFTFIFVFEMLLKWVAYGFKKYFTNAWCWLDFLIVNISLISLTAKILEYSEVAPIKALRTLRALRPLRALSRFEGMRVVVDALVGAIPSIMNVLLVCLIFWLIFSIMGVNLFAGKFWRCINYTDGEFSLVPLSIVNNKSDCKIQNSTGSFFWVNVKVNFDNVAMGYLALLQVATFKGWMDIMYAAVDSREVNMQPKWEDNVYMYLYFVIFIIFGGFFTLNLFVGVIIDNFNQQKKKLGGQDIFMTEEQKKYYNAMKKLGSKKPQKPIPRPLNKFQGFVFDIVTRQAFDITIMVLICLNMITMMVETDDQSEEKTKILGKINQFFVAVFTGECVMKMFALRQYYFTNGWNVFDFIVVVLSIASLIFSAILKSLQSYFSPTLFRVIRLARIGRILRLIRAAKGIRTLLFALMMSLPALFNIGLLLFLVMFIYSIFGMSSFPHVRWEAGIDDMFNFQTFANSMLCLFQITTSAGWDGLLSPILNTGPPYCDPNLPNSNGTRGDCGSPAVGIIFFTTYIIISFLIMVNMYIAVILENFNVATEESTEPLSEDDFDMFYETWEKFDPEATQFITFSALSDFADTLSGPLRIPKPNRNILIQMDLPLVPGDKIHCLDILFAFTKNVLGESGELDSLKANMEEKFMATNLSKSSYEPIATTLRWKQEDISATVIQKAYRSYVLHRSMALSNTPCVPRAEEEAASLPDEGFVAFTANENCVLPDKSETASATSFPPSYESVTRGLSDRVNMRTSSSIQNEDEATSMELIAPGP
# T1 sequence (Q07699 19-218 partner): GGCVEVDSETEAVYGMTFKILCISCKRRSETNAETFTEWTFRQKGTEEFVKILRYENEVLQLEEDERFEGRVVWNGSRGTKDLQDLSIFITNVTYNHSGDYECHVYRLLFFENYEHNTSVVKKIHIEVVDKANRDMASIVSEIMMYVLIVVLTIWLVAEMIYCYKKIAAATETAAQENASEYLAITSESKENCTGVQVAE
row,SMILES,IC50 [nM]
1,"Cc1cc(F)ccc1N1CN(c2ccc(=O)[nH]c2)C(=O)c2cc(C(F)(F)F)ccc21 [drawing 269, 1-(4-fluoro-2-methylphenyl)-3-(6-oxo-1,6-dihydropyridin-3-yl)-6-(trifluoromethyl)-2,3-dihydroquinazolin-4(1H)-one]",316
2,"Cc1cc(F)cc(C)c1N1CN(c2ccc(=O)[nH]c2)C(=O)c2ccc(C(F)(F)F)cc21 [drawing 270, 1-(4-fluoro-2,6-dimethylphenyl)-3-(6-oxo-1,6-dihydropyridin-3-yl)-7-(trifluoromethyl)-2,3-dihydroquinazolin-4(1H)-one]",2510
3,"Cc1cc(F)ccc1N1CN(c2c[nH]c(=O)c(C)c2)C(=O)c2ccc(C(F)(F)F)cc21 [drawing 271, 1-(4-fluoro-2-methylphenyl)-3-(5-methyl-6-oxo-1,6-dihydropyridin-3-yl)-7-(trifluoromethyl)-2,3-dihydroquinazolin-4(1H)-one]",631
4,"O=C1c2ccc(C(F)(F)F)cc2N(Cc2ccc(F)cc2)CN1c1ccc(=O)[nH]c1 [drawing 272, 1-(4-fluorobenzyl)-3-(6-oxo-1,6-dihydropyridin-3-yl)-7-(trifluoromethyl)-2,3-dihydroquinazolin-4(1H)-one]",7940
5,"Cc1cc(=O)[nH]cc1N1CN(c2ccc(F)cc2C)c2cc(C(F)(F)F)ccc2C1=O [drawing 273, 1-(4-fluoro-2-methylphenyl)-3-(4-methyl-6-oxo-1,6-dihydropyridin-3-yl)-7-(trifluoromethyl)-2,3-dihydroquinazolin-4(1H)-one]",398
6,"Cc1cc(OC(F)(F)F)ccc1N1CN(c2ccc(=O)[nH]c2C)C(=O)c2cc(C(F)(F)F)cnc21 [drawing 274, 1-(2-methyl-4-(trifluoromethoxy)phenyl)-3-(2-methyl-6-oxo-1,6-dihydropyridin-3-yl)-6-(trifluoromethyl)-2,3-dihydropyrido[2,3-d]pyrimidin-4(1H)-one]",25.1
7,"Cc1cc(F)ccc1N1c2cc(C(F)(F)F)ccc2C(=O)N(c2ccc(=O)[nH]c2)C1C (stereo not shown) [drawing 275, 1-(4-fluoro-2-methylphenyl)-2-methyl-3-(6-oxo-1,6-dihydropyridin-3-yl)-7-(trifluoromethyl)-2,3-dihydroquinazolin-4(1H)-one]",1260
8,"O=C1c2ccc(C(F)(F)F)cc2N(c2ccc(F)cc2Cl)CN1c1ccc(=O)[nH]c1 [drawing 276, 1-(2-chloro-4-fluorophenyl)-3-(6-oxo-1,6-dihydropyridin-3-yl)-7-(trifluoromethyl)-2,3-dihydroquinazolin-4(1H)-one]",501
9,"O=C1c2ccc(C(F)(F)F)cc2N(c2ccc(F)cc2OCCO)CN1c1ccc(=O)[nH]c1 [drawing 277, 1-(4-fluoro-2-(2-hydroxyethoxy)phenyl)-3-(6-oxo-1,6-dihydropyridin-3-yl)-7-(trifluoromethyl)-2,3-dihydroquinazolin-4(1H)-one]",6310
10,"O=C1c2ccc(C(F)(F)F)cc2N(c2ccc(F)cc2F)CN1c1ccc(=O)[nH]c1 [drawing 278, 1-(2,4-difluorophenyl)-3-(6-oxo-1,6-dihydropyridin-3-yl)-7-(trifluoromethyl)-2,3-dihydroquinazolin-4(1H)-one]",794
11,"Cc1cc(F)ccc1N1CN(c2ccc(=O)[nH]c2)C(=O)c2ccc(C#N)cc21 [drawing 279, 1-(4-fluoro-2-methylphenyl)-4-oxo-3-(6-oxo-1,6-dihydropyridin-3-yl)-1,2,3,4-tetrahydroquinazoline-7-carbonitrile]",1580
12,"CCc1cc(F)ccc1N1CN(c2ccc(=O)[nH]c2)C(=O)c2ccc(C(F)(F)F)cc21 [drawing 280, 1-(2-ethyl-4-fluorophenyl)-3-(6-oxo-1,6-dihydropyridin-3-yl)-7-(trifluoromethyl)-2,3-dihydroquinazolin-4(1H)-one]",251
13,"COc1cc(F)ccc1N1CN(c2ccc(=O)[nH]c2)C(=O)c2c1cccc2C(F)(F)F [drawing 281, 1-(4-fluoro-2-methoxyphenyl)-3-(6-oxo-1,6-dihydropyridin-3-yl)-5-(trifluoromethyl)-2,3-dihydroquinazolin-4(1H)-one]",6310
14,"Cc1cc(F)ccc1N1CN(c2ccc(=O)[nH]c2)C(=O)c2ccc(C(F)(F)F)c(Cl)c21 [drawing 282, 8-chloro-1-(4-fluoro-2-methylphenyl)-3-(6-oxo-1,6-dihydropyridin-3-yl)-7-(trifluoromethyl)-2,3-dihydroquinazolin-4(1H)-one]",6310
15,"Cc1cc(Br)ccc1N1CN(c2ccc(=O)[nH]c2)C(=O)c2ccc(C(F)(F)F)cc21 [drawing 283, 1-(4-bromo-2-methylphenyl)-3-(6-oxo-1,6-dihydropyridin-3-yl)-7-(trifluoromethyl)-2,3-dihydroquinazolin-4(1H)-one]",316
16,"Cc1cc(F)ccc1N1CN(c2ccc(=O)[nH]c2)C(=O)c2ccc(C(F)(F)F)c(C)c21 [drawing 284, 1-(4-fluoro-2-methylphenyl)-8-methyl-3-(6-oxo-1,6-dihydropyridin-3-yl)-7-(trifluoromethyl)-2,3-dihydroquinazolin-4(1H)-one]",6310

row,SMILES,IC50 [nM]
1,"Cc1[nH]c(=O)ccc1N1CN(c2ccc(F)cc2)c2cc(C(F)(F)F)ccc2C1=O [drawing 285, 1-(4-fluorophenyl)-3-(2-methyl-6-oxo-1,6-dihydropyridin-3-yl)-7-(trifluoromethyl)-2,3-dihydroquinazolin-4(1H)-one]",126
2,"Cc1cc(F)ccc1N1CN(c2ccc(=O)[nH]c2C)C(=O)c2cc(C(F)(F)F)ccc21 [drawing 286, 1-(4-fluoro-2-methylphenyl)-3-(2-methyl-6-oxo-1,6-dihydropyridin-3-yl)-6-(trifluoromethyl)-2,3-dihydroquinazolin-4(1H)-one]",15.8
3,"Cc1cc(C#N)ccc1N1CN(c2ccc(=O)[nH]c2C)C(=O)c2ccc(C(F)(F)F)cc21 [drawing 287, 3-methyl-4-(3-(2-methyl-6-oxo-1,6-dihydropyridin-3-yl)-4-oxo-7-(trifluoromethyl)-3,4-dihydroquinazolin-1(2H)-yl)benzonitrile]",63.1
4,"Cc1cc(F)ccc1N1CN(c2ccc(=O)[nH]c2C)C(=O)c2ccc(C(F)(F)F)nc21 [drawing 288, 1-(4-fluoro-2-methylphenyl)-3-(2-methyl-6-oxo-1,6-dihydropyridin-3-yl)-7-(trifluoromethyl)-2,3-dihydropyrido[2,3-d]pyrimidin-4(1H)-one]",251
5,"Cc1ncccc1N1CN(c2ccc(=O)[nH]c2C)C(=O)c2ccc(C(F)(F)F)cc21 [drawing 289, 3-(2-methyl-6-oxo-1,6-dihydropyridin-3-yl)-1-(2-methylpyridin-3-yl)-7-(trifluoromethyl)-2,3-dihydroquinazolin-4(1H)-one]",2510
6,"Cc1[nH]c(=O)ccc1N1CN(c2ccc(F)cc2C(C)C)c2cc(C(F)(F)F)ccc2C1=O [drawing 290, 1-(4-fluoro-2-isopropylphenyl)-3-(2-methyl-6-oxo-1,6-dihydropyridin-3-yl)-7-(trifluoromethyl)-2,3-dihydroquinazolin-4(1H)-one]",6.31
7,"CCc1[nH]c(=O)ccc1N1CN(c2ccc(F)cc2C)c2cc(C(F)(F)F)ccc2C1=O [drawing 291, 3-(2-ethyl-6-oxo-1,6-dihydropyridin-3-yl)-1-(4-fluoro-2-methylphenyl)-7-(trifluoromethyl)-2,3-dihydroquinazolin-4(1H)-one]",20
8,"Cc1cc(F)ccc1N1CN(c2ccc(=O)[nH]c2Cl)C(=O)c2ccc(C(F)(F)F)cc21 [drawing 292, 3-(2-chloro-6-oxo-1,6-dihydropyridin-3-yl)-1-(4-fluoro-2-methylphenyl)-7-(trifluoromethyl)-2,3-dihydroquinazolin-4(1H)-one]",794
9,"Cc1cc(F)ccc1N1CN(c2ccc(=O)[nH]c2C)C(=O)c2cc(Cl)ccc21 [drawing 293, 6-chloro-1-(4-fluoro-2-methylphenyl)-3-(2-methyl-6-oxo-1,6-dihydropyridin-3-yl)-2,3-dihydroquinazolin-4(1H)-one]",10
10,"Cc1[nH]c(=O)ccc1N1CN(c2ccc(F)cc2)c2ccccc2C1=O [drawing 294, 1-(4-fluorophenyl)-3-(2-methyl-6-oxo-1,6-dihydropyridin-3-yl)-2,3-dihydroquinazolin-4(1H)-one]",5010
11,"Cc1ccccc1N1CN(c2ccc(=O)[nH]c2C)C(=O)c2ccccc21 [drawing 295, 3-(2-methyl-6-oxo-1,6-dihydropyridin-3-yl)-1-(o-tolyl)-2,3-dihydroquinazolin-4(1H)-one]",631
12,"Cc1ccc2c(c1)C(=O)N(c1ccc(=O)[nH]c1C)CN2c1ccc(F)cc1C [drawing 296, 1-(4-fluoro-2-methylphenyl)-6-methyl-3-(2-methyl-6-oxo-1,6-dihydropyridin-3-yl)-2,3-dihydroquinazolin-4(1H)-one]",50.1
13,"Cc1cc(F)ccc1N1CN(c2ccc(=O)[nH]c2C)C(=O)c2ccccc21 [drawing 297, 1-(4-fluoro-2-methylphenyl)-3-(2-methyl-6-oxo-1,6-dihydropyridin-3-yl)-2,3-dihydroquinazolin-4(1H)-one]",63.1
14,"Cc1cc(F)ccc1N1CN(c2ccc(=O)[nH]c2C)C(=O)c2ccc(Br)cc21 [drawing 298, 7-bromo-1-(4-fluoro-2-methylphenyl)-3-(2-methyl-6-oxo-1,6-dihydropyridin-3-yl)-2,3-dihydroquinazolin-4(1H)-one]",3.16
15,"Cc1cc(F)ccc1N1CN(c2ccc(=O)[nH]c2C)C(=O)c2ccc(C#N)cc21 [drawing 299, 1-(4-fluoro-2-methylphenyl)-3-(2-methyl-6-oxo-1,6-dihydropyridin-3-yl)-4-oxo-1,2,3,4-tetrahydroquinazoline-7-carbonitrile]",25.1
